Results as given in patent US20260240208A1, “FLAVANONE COMPOUNDS AND THEIR USE AS FLAVOR MODIFIERS” (Firmenich Incorporated, priority 2023, published 2026).

Legend:
[1] = target: T1, TIR sweet taste receptor (Homo sapiens, UniProt Q7RTX0+Q8TE23); assay: in vitro cell-based assay with cells overexpressing the sweet taste receptor, sweet dose-response; conditions: for EC50: cells overexpressing TIR sweet taste receptor, sweet dose-response curves
T1 construct: expressed in transfected cells
T1 sequence (Q8TE23 20-839): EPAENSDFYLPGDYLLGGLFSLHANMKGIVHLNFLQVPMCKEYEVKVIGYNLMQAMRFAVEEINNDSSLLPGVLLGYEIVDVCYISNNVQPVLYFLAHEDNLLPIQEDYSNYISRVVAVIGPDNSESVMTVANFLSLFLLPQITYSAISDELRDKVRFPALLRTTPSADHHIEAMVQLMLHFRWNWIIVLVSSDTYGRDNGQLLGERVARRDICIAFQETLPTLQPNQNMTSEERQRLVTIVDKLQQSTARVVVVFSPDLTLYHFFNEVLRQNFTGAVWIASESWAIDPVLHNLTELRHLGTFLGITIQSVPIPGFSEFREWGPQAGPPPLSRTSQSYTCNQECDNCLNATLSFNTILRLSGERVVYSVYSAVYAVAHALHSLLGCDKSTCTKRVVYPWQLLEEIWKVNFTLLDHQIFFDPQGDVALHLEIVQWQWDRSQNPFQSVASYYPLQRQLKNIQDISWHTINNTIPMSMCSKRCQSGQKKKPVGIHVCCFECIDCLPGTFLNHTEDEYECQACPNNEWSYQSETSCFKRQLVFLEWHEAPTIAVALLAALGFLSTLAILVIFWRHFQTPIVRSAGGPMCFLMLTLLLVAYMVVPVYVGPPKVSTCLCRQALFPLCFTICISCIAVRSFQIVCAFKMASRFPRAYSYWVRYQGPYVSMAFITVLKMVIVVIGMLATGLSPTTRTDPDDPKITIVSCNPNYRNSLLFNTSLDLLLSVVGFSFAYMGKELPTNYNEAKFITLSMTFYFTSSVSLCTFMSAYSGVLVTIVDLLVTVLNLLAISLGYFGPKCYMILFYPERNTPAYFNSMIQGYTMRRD
T1 sequence (Q7RTX0 21-852): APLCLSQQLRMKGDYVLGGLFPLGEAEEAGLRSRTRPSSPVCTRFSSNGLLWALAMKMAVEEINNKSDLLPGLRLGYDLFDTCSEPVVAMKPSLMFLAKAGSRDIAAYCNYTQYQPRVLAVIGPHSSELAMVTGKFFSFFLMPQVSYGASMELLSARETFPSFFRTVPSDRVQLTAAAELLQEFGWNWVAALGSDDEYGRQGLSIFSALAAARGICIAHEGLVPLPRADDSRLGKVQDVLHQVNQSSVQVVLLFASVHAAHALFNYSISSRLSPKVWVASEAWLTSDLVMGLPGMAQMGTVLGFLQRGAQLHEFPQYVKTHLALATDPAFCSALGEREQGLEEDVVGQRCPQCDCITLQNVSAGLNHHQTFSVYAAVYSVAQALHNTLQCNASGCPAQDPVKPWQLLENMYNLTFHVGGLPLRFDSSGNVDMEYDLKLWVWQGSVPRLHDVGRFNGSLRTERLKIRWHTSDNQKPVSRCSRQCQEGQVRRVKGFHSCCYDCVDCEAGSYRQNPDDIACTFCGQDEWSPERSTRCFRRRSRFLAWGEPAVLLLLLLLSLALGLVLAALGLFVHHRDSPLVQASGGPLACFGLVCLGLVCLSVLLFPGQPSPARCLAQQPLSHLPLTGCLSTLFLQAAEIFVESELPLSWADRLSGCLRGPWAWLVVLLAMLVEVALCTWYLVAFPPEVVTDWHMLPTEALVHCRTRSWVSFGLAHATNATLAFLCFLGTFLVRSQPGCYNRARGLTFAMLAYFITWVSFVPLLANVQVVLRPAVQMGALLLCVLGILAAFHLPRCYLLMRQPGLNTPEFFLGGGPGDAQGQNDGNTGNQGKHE
Method: Each of Compounds 101-106 was synthesized. Thereafter, the compounds were tested in an in vitro cell-based assay having cells that overexpress the TIR sweet taste receptor. The sweet dose-response curves were recorded and the EC50 was determined. Table 2 summarizes calculated EC50 values for certain tested compounds.

[2] = sensory panel: sweetness enhancement of sucrose, rating on a scale of 0 to 10; format: in vivo, human; conditions: mean panel score, scale 0 to 10
Method: Two control samples were prepared of 6 wt % sucrose and 7.5 wt % sucrose in Low sodium buffer. Two test samples were prepared: one at 6 wt % sucrose plus 4 ppm of Compound 101, and the other at 6 wt % sucrose plus 7 ppm of Compound 103. Panelists were asked to evaluate the four samples and rate the sweetness on a scale of 0 to 10, with a higher rating indicating greater sweetness.

[3] = sensory panel paired comparison: sweetness alone versus 1.5 wt % sucrose; format: in vivo, human
Method: The test samples were prepared from Compound 101 (4 ppm aqueous solution) and Compound 103 (7 ppm aqueous solution). Each of the test samples was evaluated by a sensory panel for its sweetness relative to 1.5 wt % sucrose solution. The panelists were asked to choose the sweeter sample in a pair of a compound test sample and a 1.5 wt % solution of sucrose. For Compound 101, the taste sample was selected 14 times as sweeter, while the sucrose control was selected 46 times out of total 60 times. For Compound 103, the taste sample was selected 14 times as sweeter, while the sucrose control was selected 55 times out of total 69 times.

[4] = pair: Compound 101 4 ppm aqueous solution vs 1.5 wt % sucrose solution, total 60 times
[5] = pair: Compound 103 7 ppm aqueous solution vs 1.5 wt % sucrose solution, total 69 times

COc1ccc(C2Oc3cccc(O)c3C(=O)C2OC(C)=O)cc1O (stereo not drawn) [Compound 101, 5-hydroxy-2-(3-hydroxy-4-methoxy-phenyl)-4-oxochroman-3-yl acetate]
EC50 [1]: ~1 µM | Sweetness Score ([2]; 6 wt % sucrose + 4 ppm compound): 9.8 | times selected as sweeter [3, 4]: 14 times

CCC(=O)OC1C(=O)c2c(O)cccc2OC1c1ccc(OC)c(O)c1 (stereo not drawn) [Compound 102, 5-hydroxy-2-(3-hydroxy-4-methoxy-phenyl)-4-oxochroman-3-yl propionate]
EC50 [1]: ~2 µM | agonist character ([1]; remark printed beside the EC50): partial agonist

COc1ccc(C2Oc3cc(O)ccc3C(=O)C2OC(C)=O)cc1O (stereo not drawn) [Compound 103, 7-hydroxy-2-(3-hydroxy-4-methoxyphenyl)-4-oxochroman-3-yl acetate]
EC50 [1]: ~8 µM | Sweetness Score ([2]; 6 wt % sucrose + 7 ppm compound): 8.8 | times selected as sweeter [3, 5]: 14 times

CCC(=O)OC1C(=O)c2ccc(O)cc2OC1c1ccc(OC)c(O)c1 (stereo not drawn) [Compound 104, 7-hydroxy-2-(3-hydroxy-4-methoxyphenyl)-4-oxochroman-3-yl propionate]
EC50 [1]: ~10 µM

CCC(=O)OC1C(=O)c2c(O)cc(O)cc2OC1c1ccc(OC)c(O)c1 (stereo not drawn) [Compound 105, 5,7-dihydroxy-2-(3-hydroxy-4-methoxyphenyl)-4-oxochroman-3-yl propionate]
EC50 [1]: ~5 µM

CC(=O)OC1C(=O)c2c(O)cccc2OC1c1ccc(O)cc1 (stereo not drawn) [Compound 106, 5-hydroxy-2-(4-hydroxyphenyl)-4-oxochroman-3-yl acetate]
EC50 [1]: ~45 µM

OC[C@H]1O[C@@](CO)(O[C@H]2O[C@H](CO)[C@@H](O)[C@H](O)[C@H]2O)[C@@H](O)[C@@H]1O [sucrose, reference compound]
Sweetness Score ([2]; 6 wt % sucrose alone, low sodium buffer (control)): 6.6 | Sweetness Score ([2]; 7.5 wt % sucrose alone, low sodium buffer (control)): 8.6 | times selected as sweeter [3, 4]: 46 times | times selected as sweeter [3, 5]: 55 times
